Data from the Kinase Knowledgebase extract (Sharma et al. 2016).

target: MAPK14 (human) (UniProt Q16539); assay: Inhibition of MAPK14 Kinase Activity
Sequence (Q16539 whole entry, looked up): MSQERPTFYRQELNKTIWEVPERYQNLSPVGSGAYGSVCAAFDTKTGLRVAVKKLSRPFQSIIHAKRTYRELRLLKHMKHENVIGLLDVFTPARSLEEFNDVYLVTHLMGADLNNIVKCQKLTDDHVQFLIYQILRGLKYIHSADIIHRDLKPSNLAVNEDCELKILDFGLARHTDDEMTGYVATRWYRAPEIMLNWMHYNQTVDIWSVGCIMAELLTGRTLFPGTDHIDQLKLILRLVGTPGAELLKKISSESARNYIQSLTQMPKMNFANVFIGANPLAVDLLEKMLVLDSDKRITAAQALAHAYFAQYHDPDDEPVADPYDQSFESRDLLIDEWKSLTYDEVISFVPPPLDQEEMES

IC50, 1 to 100 nM:
CC(C)Nc1ncc2cc(Oc3ccc(F)cc3F)c(=O)n(C[C@H](C)O)c2n1
C[C@H](O)Cn1c(=O)c(Oc2ccc(F)cc2F)cc2cnc(NC3CC3)nc21
C[C@H](O)Cn1c(=O)c(Oc2ccc(F)cc2F)cc2cnc(NC(CCO)CCO)nc21
CC(C)CNc1ncc2cc(Oc3ccc(F)cc3F)c(=O)n(C[C@@H](C)O)c2n1
C[C@H](O)Cn1c(=O)c(Oc2ccc(F)cc2F)cc2cnc(NC(C)(C)CO)nc21
CC[C@H](CO)Nc1ncc2cc(Oc3ccc(F)cc3F)c(=O)n(C[C@H](C)O)c2n1
C[C@H](O)Cn1c(=O)c(Oc2ccc(F)cc2F)cc2cnc(NC(CO)CO)nc21
C[C@H](O)Cn1c(=O)c(Oc2ccc(F)cc2F)cc2cnc(NC3CCCC3)nc21
COC[C@H](C)Nc1ncc2cc(Oc3ccc(F)cc3F)c(=O)n(C(CCO)CCO)c2n1
CC(O)Cn1c(=O)c(Oc2ccc(F)cc2F)cc2cnc(NC3CCOCC3)nc21 (stereo unspecified)
CC[C@H](C)Nc1ncc2cc(Oc3ccc(F)cc3F)c(=O)n(C[C@H](C)O)c2n1
C[C@H](O)Cn1c(=O)c(Oc2ccc(F)cc2F)cc2cnc(N[C@@H](CO)CCO)nc21
C[C@H](O)Cn1c(=O)c(Oc2ccc(F)cc2F)cc2cnc(N[C@H](CO)CCO)nc21
CC[C@H](C)Nc1ncc2cc(Oc3ccc(F)cc3F)c(=O)n(C[C@@H](C)O)c2n1
C[C@@H](O)Cn1c(=O)c(Oc2ccc(F)cc2F)cc2cnc(NCC3CC3)nc21
C[C@H](O)CNc1ncc2cc(Oc3ccc(F)cc3F)c(=O)n(C[C@H](C)O)c2n1
C[C@H](O)Cn1c(=O)c(Oc2ccc(F)cc2F)cc2cnc(N[C@H](CO)[C@@H](C)O)nc21
C[C@H](O)Cn1c(=O)c(Oc2ccc(F)cc2F)cc2cnc(NC[C@@H](C)O)nc21
CCNc1ncc2cc(Oc3ccc(F)cc3F)c(=O)n(C[C@@H](C)O)c2n1
CC(=O)Cn1c(=O)c(Oc2ccc(F)cc2F)cc2cnc(N[C@H](C)CO)nc21
C[C@H](O)Cn1c(=O)c(Oc2ccc(F)cc2F)cc2cnc(NCC(C)(C)C)nc21
C[C@H](O)Cn1c(=O)c(Oc2ccc(F)cc2F)cc2cnc(N[C@H](C)CO)nc21
CC[C@@H](C)Nc1ncc2cc(Oc3ccc(F)cc3F)c(=O)n(C[C@H](C)O)c2n1
C[C@@H](O)Cn1c(=O)c(Oc2ccc(F)cc2F)cc2cnc(N[C@@H](C)CO)nc21
COC[C@H](C)Nc1ncc2cc(Oc3ccc(F)cc3F)c(=O)n(C[C@H](C)O)c2n1
C[C@H](O)Cn1c(=O)c(Oc2ccc(F)cc2F)cc2cnc(NC3CCN(S(C)(=O)=O)CC3)nc21
CC[C@@H](C)Nc1ncc2cc(Oc3ccc(F)cc3F)c(=O)n(C[C@@H](C)O)c2n1
COCCC(CCOC)Nc1ncc2cc(Oc3ccc(F)cc3F)c(=O)n(C[C@H](C)O)c2n1
C[C@@H](O)Cn1c(=O)c(Oc2ccc(F)cc2F)cc2cnc(NC3CC3)nc21
CC(C)Nc1ncc2cc(Oc3ccc(F)cc3F)c(=O)n(C[C@@H](C)O)c2n1
C[C@@H](O)Cn1c(=O)c(Oc2ccc(F)cc2F)cc2cnc(NC3CCOCC3)nc21
CC(=O)Cn1c(=O)c(Oc2ccc(F)cc2F)cc2cnc(N[C@@H](C)CO)nc21
CC[C@H](CO)Nc1ncc2cc(Oc3ccc(F)cc3F)c(=O)n(C[C@@H](C)O)c2n1
C[C@H](O)Cn1c(=O)c(Oc2ccc(F)cc2F)cc2cnc(NC3CCOCC3)nc21
C[C@H](CO)Nc1ncc2cc(Oc3ccc(F)cc3F)c(=O)n(C[C@@H](C)O)c2n1
C[C@@H](O)Cn1c(=O)c(Oc2ccc(F)cc2F)cc2cnc(NC(C)(C)CO)nc21
C[C@H](O)Cn1c(=O)c(Oc2ccc(F)cc2F)cc2cnc(NC3CCCCC3)nc21
C[C@H](O)Cn1c(=O)c(Oc2ccc(F)cc2F)cc2cnc(N[C@@H](C)CO)nc21
C[C@H](O)CNc1ncc2cc(Oc3ccc(F)cc3F)c(=O)n(C[C@@H](C)O)c2n1
C[C@@H](O)Cn1c(=O)c(Oc2ccc(F)cc2F)cc2cnc(NCC(C)(C)C)nc21
C[C@@H](O)CNc1ncc2cc(Oc3ccc(F)cc3F)c(=O)n(C[C@@H](C)O)c2n1
O=c1c(Oc2ccc(F)cc2F)cc2cnc(NC3CCOCC3)nc2n1CCO
C[C@@H](O)Cn1c(=O)c(Oc2ccc(F)cc2F)cc2cnc(NC3CCC3)nc21
CNc1ncc2cc(Oc3ccc(F)cc3F)c(=O)n(C[C@@H](C)O)c2n1
CC[C@@H](CO)Nc1ncc2cc(Oc3ccc(F)cc3F)c(=O)n(C[C@H](C)O)c2n1
C[C@H](Nc1ncc2cc(Oc3ccc(F)cc3F)c(=O)n(C[C@@H](C)O)c2n1)C(C)(C)O
